Like-named read-outs stand apart in the source and are kept apart here.
Key:
Test in all cases: Glasshouse assay for herbicidal activity (pre- and post-emergence), percentage phytotoxicity
Format in all cases: in vivo
[1] = system: Lolium perenne (LOLPE); settings: Lolium perenne
Protocol: (§1) Test—Glasshouse Assay for Herbicidal Activity
(§2) Seeds of a variety of monocotyledonous and dicotyledonous test plants are sown in standard soil in pots. The plants are cultivated for one day (for pre-emergence (PRE)) or for about 12 days (for post-emergence (POST)) under controlled conditions in a glasshouse (warm climate species at 24/18° C., cool climate species at 20/16° C., both at day/night; 16 hours light; 65% humidity).
(§3) The test plants are then grown on, in a glasshouse (greenhouse) under controlled conditions (warm climate species at 24/18° C., cool climate species at 20/16° C., both at day/night; 16 hours light; 65% humidity) and are watered twice daily. 15 days after application of the test herbicide (15 DAA) (for post-emergence), and 20 days after application of the test herbicide (20 DAA) (for pre-emergence), the test plants are evaluated visually, and an assessed percentage phytotoxicity score is given for each herbicidal application on each plant species (with 100%=total damage to plant; 0%=no damage to plant).
(§4) The plant species tested are as follows: Alopecurus myosuroides (ALOMY), Avena fatua (AVEFA), Lolium perenne (LOLPE), Echinochloa crus-galli (ECHCG).

[2] = system: Echinochloa crus-galli (ECHCG); settings: Echinochloa crus-galli
Protocol: as §1, §2, §3, §4

[3] = system: Alopecurus myosuroides (ALOMY); settings: Alopecurus myosuroides
Protocol: as §1, §2, §3, §4

[4] = system: Avena fatua (AVEFA); settings: Avena fatua
Protocol: as §1, §2, §3, §4

[5] = post-emergence, 360 h, 250 g/ha, post-emergence, 15 DAA, visual assessment (100%=total damage, 0%=no damage), read-out: Post-emergence herbicidal activity (percentage phytotoxicity) LOLPE POST
[6] = pre-emergence, 480 h, 250 g/ha, pre-emergence, 20 DAA, visual assessment (100%=total damage, 0%=no damage), read-out: Pre-emergence herbicidal activity (percentage phytotoxicity) LOLPE PRE
[7] = post-emergence, 360 h, 250 g/ha, post-emergence, 15 DAA, visual assessment (100%=total damage, 0%=no damage), read-out: Post-emergence herbicidal activity (percentage phytotoxicity) ECHCG POST
[8] = pre-emergence, 480 h, 250 g/ha, pre-emergence, 20 DAA, visual assessment (100%=total damage, 0%=no damage), read-out: Pre-emergence herbicidal activity (percentage phytotoxicity) ECHCG PRE
[9] = post-emergence, 360 h, 250 g/ha, post-emergence, 15 DAA, visual assessment (100%=total damage, 0%=no damage), read-out: Post-emergence herbicidal activity (percentage phytotoxicity) ALOMY POST
[10] = pre-emergence, 480 h, 250 g/ha, pre-emergence, 20 DAA, visual assessment (100%=total damage, 0%=no damage), read-out: Pre-emergence herbicidal activity (percentage phytotoxicity) ALOMY PRE
[11] = post-emergence, 360 h, 250 g/ha, post-emergence, 15 DAA, visual assessment (100%=total damage, 0%=no damage), read-out: Post-emergence herbicidal activity (percentage phytotoxicity) AVEFA POST
[12] = pre-emergence, 480 h, 250 g/ha, pre-emergence, 20 DAA, visual assessment (100%=total damage, 0%=no damage), read-out: Pre-emergence herbicidal activity (percentage phytotoxicity) AVEFA PRE
[13] = post-emergence, 360 h, POST-emergence, rate 250 g/ha, visual score 15 DAA (100%=total damage, 0%=no damage), read-out: Post-emergence herbicidal activity (percentage phytotoxicity) LOLPE POST
[14] = pre-emergence, 480 h, PRE-emergence, rate 250 g/ha, visual score 20 DAA (100%=total damage, 0%=no damage), read-out: Pre-emergence herbicidal activity (percentage phytotoxicity) LOLPE PRE
[15] = post-emergence, 360 h, POST-emergence, rate 250 g/ha, visual score 15 DAA (100%=total damage, 0%=no damage), read-out: Post-emergence herbicidal activity (percentage phytotoxicity) ECHCG POST
[16] = pre-emergence, 480 h, PRE-emergence, rate 250 g/ha, visual score 20 DAA (100%=total damage, 0%=no damage), read-out: Pre-emergence herbicidal activity (percentage phytotoxicity) ECHCG PRE
[17] = post-emergence, 360 h, POST-emergence, rate 250 g/ha, visual score 15 DAA (100%=total damage, 0%=no damage), read-out: Post-emergence herbicidal activity (percentage phytotoxicity) ALOMY POST
[18] = pre-emergence, 480 h, PRE-emergence, rate 250 g/ha, visual score 20 DAA (100%=total damage, 0%=no damage), read-out: Pre-emergence herbicidal activity (percentage phytotoxicity) ALOMY PRE
[19] = post-emergence, 360 h, POST-emergence, rate 250 g/ha, visual score 15 DAA (100%=total damage, 0%=no damage), read-out: Post-emergence herbicidal activity (percentage phytotoxicity) AVEFA POST
[20] = pre-emergence, 480 h, PRE-emergence, rate 250 g/ha, visual score 20 DAA (100%=total damage, 0%=no damage), read-out: Pre-emergence herbicidal activity (percentage phytotoxicity) AVEFA PRE

SMILES	pest or weed control at 250 g/ha [1, 5] [%]	pest or weed control at 250 g/ha [1, 6] [%]	pest or weed control at 250 g/ha [2, 7] [%]	pest or weed control at 250 g/ha [2, 8] [%]	pest or weed control at 250 g/ha [3, 9] [%]	pest or weed control at 250 g/ha [3, 10] [%]	pest or weed control at 250 g/ha [4, 11] [%]	pest or weed control at 250 g/ha [4, 12] [%]	other results
CCC(C)NC(=O)CC1CC(=O)C(c2c(C)cc(-c3ncc(Cl)cc3F)cc2C)C1=O (stereo not shown) [Compound B119]	100	100	100	100	100	100	100	90	
Cc1cc(-c2ncc(F)cc2F)cc(C)c1C1C(=O)CC(CC(=O)NCc2cccc(Cl)c2)C1=O (stereo not shown) [Compound B33]	90	100	100	100	90	100	100	100	
Cc1cc(-c2ncc(Cl)cc2F)cc(C)c1C1C(=O)CC(CC(=O)NCC2CC2C(F)F)C1=O (stereo not shown) [Compound B143]	100	100	100	100	100	90	100	90	
Cc1cc(-n2ncc(Cl)c2C)cc(C)c1C1C(=O)CC(CC(=O)NC(C)(C)C)C1=O (stereo not shown) [Compound B104]	70	10	70	20	80	40	80	10	
C=CCCNC(=O)CC1CC(=O)C(c2c(C)cc(-n3cc(Cl)cn3)cc2C)C1=O (stereo not shown) [Compound A76]									pest or weed control at 250 g/ha ([1]; post-emergence, 360 h, Rate 250 g/ha, post-emergence, assessed visually 15 DAA, 100%=total damage, 0%=no damage, read-out: Post-emergence herbicidal activity (percentage phytotoxicity) LOLPE POST): 80%; pest or weed control at 250 g/ha ([1]; pre-emergence, 480 h, Rate 250 g/ha, pre-emergence, assessed visually 20 DAA, 100%=total damage, 0%=no damage, read-out: Pre-emergence herbicidal activity (percentage phytotoxicity) LOLPE PRE): 90%; pest or weed control at 250 g/ha ([2]; post-emergence, 360 h, Rate 250 g/ha, post-emergence, assessed visually 15 DAA, 100%=total damage, 0%=no damage, read-out: Post-emergence herbicidal activity (percentage phytotoxicity) ECHCG POST): 100%; pest or weed control at 250 g/ha ([2]; pre-emergence, 480 h, Rate 250 g/ha, pre-emergence, assessed visually 20 DAA, 100%=total damage, 0%=no damage, read-out: Pre-emergence herbicidal activity (percentage phytotoxicity) ECHCG PRE): 100%; pest or weed control at 250 g/ha ([3]; post-emergence, 360 h, Rate 250 g/ha, post-emergence, assessed visually 15 DAA, 100%=total damage, 0%=no damage, read-out: Post-emergence herbicidal activity (percentage phytotoxicity) ALOMY POST): 100%; pest or weed control at 250 g/ha ([3]; pre-emergence, 480 h, Rate 250 g/ha, pre-emergence, assessed visually 20 DAA, 100%=total damage, 0%=no damage, read-out: Pre-emergence herbicidal activity (percentage phytotoxicity) ALOMY PRE): 90%; pest or weed control at 250 g/ha ([4]; post-emergence, 360 h, Rate 250 g/ha, post-emergence, assessed visually 15 DAA, 100%=total damage, 0%=no damage, read-out: Post-emergence herbicidal activity (percentage phytotoxicity) AVEFA POST): 90%; pest or weed control at 250 g/ha ([4]; pre-emergence, 480 h, Rate 250 g/ha, pre-emergence, assessed visually 20 DAA, 100%=total damage, 0%=no damage, read-out: Pre-emergence herbicidal activity (percentage phytotoxicity) AVEFA PRE): 90%
C=C(C)CNC(=O)CC1CC(=O)C(c2c(C)cc(-n3cc(Cl)cn3)cc2C)C1=O (stereo not shown) [Compound B311]									pest or weed control at 250 g/ha [1, 13]: 70%; pest or weed control at 250 g/ha [1, 14]: 90%; pest or weed control at 250 g/ha [2, 15]: 100%; pest or weed control at 250 g/ha [2, 16]: 90%; pest or weed control at 250 g/ha [3, 17]: 80%; pest or weed control at 250 g/ha [3, 18]: 80%; pest or weed control at 250 g/ha [4, 19]: 90%; pest or weed control at 250 g/ha [4, 20]: 80%
Cc1cc(-c2ncc(Cl)cc2F)cc(C)c1C1C(=O)CC(CC(=O)NCC2CC2(Cl)Cl)C1=O (stereo not shown) [Compound B160]	100	90	100	100	100	90	100	80	
C#CCN(C)C(=O)CC1CC(=O)C(c2c(C)cc(OCC(F)(F)F)cc2C)C1=O (stereo not shown) [Compound B213]									pest or weed control at 250 g/ha [1, 13]: 90%; pest or weed control at 250 g/ha [1, 14]: 70%; pest or weed control at 250 g/ha [2, 15]: 100%; pest or weed control at 250 g/ha [2, 16]: 90%; pest or weed control at 250 g/ha [3, 17]: 90%; pest or weed control at 250 g/ha [3, 18]: 80%; pest or weed control at 250 g/ha [4, 19]: 90%; pest or weed control at 250 g/ha [4, 20]: 50%

— patent US10206394B2, “Herbicidal compounds” (Syngenta Participations AG, priority 2014, dated 2019)
